Here are results for 2 compounds from patent US12415989B2, “Cell culture platform for single cell sorting and enhanced reprogramming of iPSCs” (Fate Therapeutics, Inc., priority 2010, dated 2025).

Entries after “also recorded” stand apart in the source; their conditions may differ.

For test [1], the system named is human pluripotent stem cells. The experiment in a line: Small molecule cocktails in single cell culture of human pluripotent stem cells on feeder free substratum. As to conditions: in combination with MEKi/TFGβi/GSKi. Format: cell-based. The procedure: FIGS. 1A-1E. The effects of various small molecule cocktails on single cell culture of human pluripotent stem cells on feeder free substratum. FIG. 1A. Different morphologies were evident when single cell dissociated human pluripotent stem cells were treated with various combinations of small molecules in a feeder free environment. Medium containing a combination of ROCKi/MEKi/TGFβi/GSKi delivered robust growth and viability of human pluripotent stem cells. FIG. 1B. While some small molecules supported maintenance of pluripotent stem cells, i.e., MEKi/TGFβi/GSKi, and others facilitated single cell dissociation of pluripotent stem cells, i.e., Rocki, the unique combination of these small molecules, i.e., ROCKi/MEKi/TGFβi/GSKi, supported single cell dissociation while maintaining undifferentiated status as indicated by highly proliferative colonies that were positive for pluripotent marker Tra181. Tra181, red; DAPI, blue. FIG. 1C. The combination of MEKi/TFGβi/GSKi/ROCKi supported viability and proliferation when hiPSCs were seeded at 1×10^5 cells on Matrigel and scored 4 days later for number of viable cells and percent viability as measured by trypan blue. FIG. 1D. […] FIG. 1E. […]

The test system of a further test is human fibroblasts. The experiment in a line: Reprogramming of fibroblasts to iPSCs: kinetics and efficiency of colony formation. The format is cell-based. As to conditions: additive used in the culture system for 3 days.

Protocol for human fibroblasts: To initiate the reprogramming process, ectopic expression of reprogramming factors (in variable combinations of human Oct4, Sox2, Klf4, c-Myc, Lin28, and Nanog) was achieved using lentiviral transduction or other methods such as protein only treatment. In most cases, the starting cells were plated at 10% confluency (i.e., 1×10^5 cells per well of a 6-well plate) on a gelatin (Mediatech) coated surface. For the method of viral infection, freshly collected lentivirus was added to the starting cells at a dilution of 1:2, supplemented with 4 μg/mL polybrene (Millipore), and spin-infected at 650 g at 32° C. for 1.5 hrs. The culture was transferred to 37° C. and 5% CO2 for an additional 7 hrs. After the completion of the incubation, the cells were washed three times with PBS and fed with fresh medium. With difficult to infect cells, such as IMR90 fibroblasts in feeder-free culture systems, this process was repeated one more time, 48 hrs post the initial infection. For non-genetic methods of inducing reprogramming such as the use of direct protein application to the cells, protein mixtures, or cocktails, consisting of reprogramming factors at 8 μg/mL were added to cell solution and maintained for 24 hrs prior to medium change. This step was repeated for an additional two to four times. […]

Consider `O=C(NCc1ccccc1)c1csc(Nc2ccncn2)n1` [Thiazovivin], for which the “maintenance of cells in an undifferentiated state (SSEA4 and Tra181 surface expression)” value in test [1] (compared with Y27632) is given as “preferred over Y27632; also recorded: better supports the maintenance of cells in an undifferentiated state”. Also, the colony morphology entry in test [1] (relative to Y27632) is “more compact in morphology”.
As to fibronectin, in the test on human fibroblasts, the post-sort seeding result is recorded as “improved post-sort seeding”.
